Assay results as given in patent publication US20250195521A1 (Revolution Medicines, Inc., priority 2020, published 2025).
Values joined by “and” are separate entries in the source; they are usually repeats but may differ in a detail not shown here. Equal values may be shown once. Read-outs that look alike come from different tables or passages of the source.

How the values were obtained:
KRAS G13D = KRAS G13D (Homo sapiens (Human), UniProt P01116+P62937, G13D); test: Ras-Raf disruption/FRET/MOA assay (BRAF RBD, Cyclophilin A); type: biochemical
Experimental: (§1) Compound is present in plate wells as a 10-point 3-fold dilution series starting at a final concentration of 30 μM. After incubation at 25° C. for 3 hours, a mixture of Anti-His Eu—W1024 and anti-GST allophycocyanin is then added to assay sample wells at final concentrations of 10 nM and 50 nM, respectively, and the reaction incubated for an additional 1.5 hours. […] Compounds that facilitate disruption of a Ras: RAF complex are identified as those eliciting a decrease in the TR-FRET ratio relative to DMSO control wells.
(§2) Disruption of B-Raf Ras-Binding Domain (BRAF^RBD) Interaction with K-Ras by Compounds of the Invention (Also Called a FRET Assay or an MOA Assay)
(§3) Note—The following protocol describes a procedure for monitoring disruption of K-Ras G12C (GMP-PNP) binding to BRAF^RBD by a compound of the invention. This protocol may also be executed substituting other Ras proteins or nucleotides.
(§4) The purpose of this biochemical assay was to measure the ability of test compounds to facilitate ternary complex formation between a nucleotide-loaded K-Ras isoform and Cyclophilin A; the resulting ternary complex disrupts binding to a BRAF^RBD construct, inhibiting K-Ras signaling through a RAF effector. Data is reported as IC50 values.
(§5) In assay buffer containing 25 mM HEPES pH 7.3, 0.002% Tween20, 0.1% BSA, 100 mM NaCl and 5 mM MgCl2, tagless Cyclophilin A, His6-K-Ras-GMPPNP, and GST-BRAF^RBD were combined in a 384-well assay plate at final concentrations of 25 μM, 12.5 nM and 50 nM, respectively. Compound was present in plate wells as a 10-point 3-fold dilution series starting at a final concentration of 30 μM. After incubation at 25° C. for 3 hours, a mixture of Anti-His Eu—W1024 and anti-GST allophycocyanin was then added to assay sample wells at final concentrations of 10 nM and 50 nM, respectively, and the reaction incubated for an additional 1.5 hours. […] Compounds that facilitate disruption of a K-Ras: RAF complex were identified as those eliciting a decrease in the TR-FRET ratio relative to DMSO control wells.

NRAS G12C = NRAS G12C (Homo sapiens (Human), UniProt P01111+P62937, G12C); test: as above; type: biochemical
Experimental: as §1, §2, §3, §4, §5

KRAS G12C = KRAS G12C (Homo sapiens (Human), UniProt P01116+P62937, G12C); test: as above; type: biochemical; settings: read-out: KRAS G12C FRET IC50
Experimental: as §1, §2, §3, §4, §5

KRAS G12D = KRAS G12D (Homo sapiens (Human), UniProt P01116+P62937, G12D); test: as above; type: biochemical
Experimental: as §1, §2, §3, §4, §5

KRAS G12S = KRAS G12S (Homo sapiens (Human), UniProt P01116+P62937, G12S); test: as above; type: biochemical
Experimental: as §1, §2, §3, §4, §5

KRAS G13C = KRAS G13C (Homo sapiens (Human), UniProt P01116+P62937, G13C); test: as above; type: biochemical
Experimental: as §1, §2, §3, §4, §5

KRAS WT = KRAS WT (Homo sapiens (Human), UniProt P01116+P62937); test: as above; type: biochemical
Experimental: as §1, §2, §3, §4, §5

[1] = tested on: K-Ras G12C (NCI-H358 cells); test: Potency assay: pERK in NCI-H358 cells; type: cell-based, human; settings: Homo sapiens; NCI-H358 cells, 4 hours; read-out: pERK EC50 (H358 KRAS G12C)
Method in brief: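 Cells plated the day before were exposed for 4 h at 37° C, 5% CO2 to a 10-point, 3-fold DMSO dilution series (10 mM top stock), in duplicate. Phospho-ERK was read by AlphaLISA SureFire Ultra or by In-Cell Western with DRAQ5 DNA stain, and IC50 came from a 4-parameter sigmoidal fit.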

KRAS G12V = KRAS G12V (Homo sapiens (Human), UniProt P01116+P62937, G12V); test: Ras-Raf disruption/FRET/MOA assay (BRAF RBD, Cyclophilin A); type: biochemical
Experimental: as §1, §2, §3, §4, §5

[2] = tested on: Capan-1 cells (K-Ras G12V); test: CellTiter-Glo cell viability, Capan-1; type: cell-based, human; settings: Homo sapiens, CAPAN-1, 120 h, read-out: Capan-1 Cell Viability IC50
Experimental: Note—The following protocol describes a procedure for monitoring cell viability of K-Ras mutant cancer cell lines in response to a compound of the invention. Other RAS isoforms may be employed, though the number of cells to be seeded will vary based on cell line used.
Test compounds (132.5 nl) were directly dispensed into the assay plates containing cells. […] On day 5, assay plates and their contents were equilibrated to room temperature for approximately 30 minutes. […] Luminescence was measured using the PerkinElmer Enspire. Data were normalized by the following: (Sample signal/Avg. DMSO)*100. The data were fit using a four-parameter logistic fit.

NCI-H358 (K-Ras G12C) = test: CellTiter-Glo cell viability assay, NCI-H358; type: cell-based, human; settings: Homo sapiens, NCI-H358, 120 h, 5-day treatment; read-out: H358 Cell Viability assay data (K-Ras G12C, IC50)
Method in brief: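 Five-day compound treatment of NCI-H358 cells, then CellTiter-Glo luminescence, percent of DMSO, four-parameter logistic fit.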

[3] = read-out: KRAS G13D FRET data IC50
[4] = read-out: NRAS G12C FRET data IC50
[5] = read-out: KRAS WT FRET data IC50

Sequence of KRAS G12D (P01116 other isoform, or with tags, fused parts or gaps G12D): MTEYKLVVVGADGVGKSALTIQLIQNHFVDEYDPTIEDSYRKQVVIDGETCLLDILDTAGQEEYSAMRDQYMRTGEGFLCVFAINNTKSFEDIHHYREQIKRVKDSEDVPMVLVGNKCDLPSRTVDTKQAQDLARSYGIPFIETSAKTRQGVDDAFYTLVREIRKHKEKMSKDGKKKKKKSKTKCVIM
Sequence of KRAS G12D (P62937 whole entry): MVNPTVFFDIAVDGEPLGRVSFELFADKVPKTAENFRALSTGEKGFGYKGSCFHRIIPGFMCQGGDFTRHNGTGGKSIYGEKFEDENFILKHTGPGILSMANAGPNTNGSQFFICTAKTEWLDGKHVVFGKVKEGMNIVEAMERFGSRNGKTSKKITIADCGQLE
Sequence of KRAS G12C (P01116-2 other isoform, or with tags, fused parts or gaps G12C): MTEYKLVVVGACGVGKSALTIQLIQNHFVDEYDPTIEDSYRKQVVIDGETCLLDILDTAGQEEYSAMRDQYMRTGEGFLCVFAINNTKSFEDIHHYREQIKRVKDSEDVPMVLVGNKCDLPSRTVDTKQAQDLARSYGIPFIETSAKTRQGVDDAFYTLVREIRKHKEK
Sequence of KRAS G12C (P62937 whole entry): as the sequence (P62937 whole entry) above
Sequence of NRAS G12C (P01111 whole entry G12C): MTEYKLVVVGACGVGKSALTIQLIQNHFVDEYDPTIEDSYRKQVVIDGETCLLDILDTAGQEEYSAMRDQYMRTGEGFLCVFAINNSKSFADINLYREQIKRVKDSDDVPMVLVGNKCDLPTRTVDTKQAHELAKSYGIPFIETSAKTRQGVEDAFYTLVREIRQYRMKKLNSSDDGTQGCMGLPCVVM
Sequence of NRAS G12C (P62937 whole entry): as the sequence (P62937 whole entry) above
Sequence of KRAS WT (P01116 other isoform, or with tags, fused parts or gaps): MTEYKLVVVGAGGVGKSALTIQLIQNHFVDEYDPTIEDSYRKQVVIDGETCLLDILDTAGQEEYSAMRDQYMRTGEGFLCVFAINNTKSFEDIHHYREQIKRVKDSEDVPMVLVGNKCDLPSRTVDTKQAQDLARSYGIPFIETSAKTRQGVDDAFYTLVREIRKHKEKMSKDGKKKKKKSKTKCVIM
Sequence of KRAS WT (P62937 whole entry): as the sequence (P62937 whole entry) above
Sequence of KRAS G12V (P01116 other isoform, or with tags, fused parts or gaps G12V): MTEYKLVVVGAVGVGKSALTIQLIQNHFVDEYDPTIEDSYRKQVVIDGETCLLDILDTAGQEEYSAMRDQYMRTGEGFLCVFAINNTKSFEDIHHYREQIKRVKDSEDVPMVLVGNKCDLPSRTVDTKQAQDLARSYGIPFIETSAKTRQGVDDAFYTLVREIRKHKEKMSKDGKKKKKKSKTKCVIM
Sequence of KRAS G12V (P62937 whole entry): as the sequence (P62937 whole entry) above
Sequence of KRAS G13D (P01116 other isoform, or with tags, fused parts or gaps G13D): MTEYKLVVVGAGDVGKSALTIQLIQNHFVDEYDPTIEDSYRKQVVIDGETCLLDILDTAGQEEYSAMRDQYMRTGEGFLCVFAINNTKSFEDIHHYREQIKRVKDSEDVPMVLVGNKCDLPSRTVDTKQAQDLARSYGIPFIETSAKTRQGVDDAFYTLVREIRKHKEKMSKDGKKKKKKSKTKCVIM
Sequence of KRAS G13D (P62937 whole entry): as the sequence (P62937 whole entry) above
Sequence of KRAS G13C (P01116 other isoform, or with tags, fused parts or gaps G13C): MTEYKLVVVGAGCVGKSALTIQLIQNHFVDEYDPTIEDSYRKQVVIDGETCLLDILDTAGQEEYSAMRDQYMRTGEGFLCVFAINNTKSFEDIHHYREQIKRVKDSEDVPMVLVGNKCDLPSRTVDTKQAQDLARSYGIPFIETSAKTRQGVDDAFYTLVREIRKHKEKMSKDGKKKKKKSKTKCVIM
Sequence of KRAS G13C (P62937 whole entry): as the sequence (P62937 whole entry) above
Sequence of KRAS G12S (P01116 other isoform, or with tags, fused parts or gaps G12S): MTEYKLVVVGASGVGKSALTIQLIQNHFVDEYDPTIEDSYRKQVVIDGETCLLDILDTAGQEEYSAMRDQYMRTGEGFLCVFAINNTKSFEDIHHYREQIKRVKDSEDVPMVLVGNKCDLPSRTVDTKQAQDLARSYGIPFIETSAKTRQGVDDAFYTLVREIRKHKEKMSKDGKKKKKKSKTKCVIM
Sequence of KRAS G12S (P62937 whole entry): as the sequence (P62937 whole entry) above

IC50 (KRAS G13D; [3])	IC50 (KRAS WT; [5])	EC50 [1]	SMILES	IC50 (NRAS G12C; [4])	IC50 (KRAS G12D; read-out: KRAS G12D FRET IC50)	IC50 (KRAS G12S; read-out: KRAS G12S FRET IC50)	IC50 (KRAS G13C; read-out: KRAS G13C FRET IC50)	IC50 (KRAS G12V; read-out: KRAS G12V FRET IC50)	IC50 ([2]; K-Ras G12V, 5-day treatment)	other results
0.1 to 1 µM and 1 to 10 µM	0.1 to 1 µM	< 5 µM	CCn1c(-c2cccnc2[C@H](C)OC)c2c3cc(ccc31)-c1cc(O)cc(c1)C[C@H](NC(=O)C(C)Cc1ccncc1)C(=O)N1CCC[C@H](N1)C(=O)OCC(C)(C)C2 (stereo partly shown) [Compound A179]	1 to 10 µM	1 to 10 µM	1 to 10 µM	0.1 to 1 µM	1 to 10 µM		IC50 (KRAS G12C): 0.1 to 1 µM
0.01 to 0.1 µM	0.01 to 0.1 µM		CCn1c(-c2cccnc2[C@H](C)OC)c2c3cc(ccc31)-c1cc(O)cc(c1)C[C@H](NC(=O)[C@H](C(C)C)N(C)C(=O)[C@@H]1CN(C(=O)OC)C[C@@H]1C)C(=O)N1CCC[C@H](N1)C(=O)OCC(C)(C)C2 [Compound A325]		0.01 to 0.1 µM	0.01 to 0.1 µM			0.01 to 0.1 µM	
> 10 µM	1 to 10 µM		CCn1c(-c2cccnc2[C@H](C)OC)c2c3cc(ccc31)-c1cccc(c1)C[C@H](NC(=O)[C@H](C(C)C)N(C)C(=O)[C@H]1OCC[C@H]1c1ccccc1)C(=O)N1CCC[C@H](N1)C(=O)OCC(C)(C)C2 [Compound A429]	1 to 10 µM	> 10 µM	> 10 µM	> 10 µM	> 10 µM		IC50 (KRAS G12C): 1 to 10 µM
0.01 to 0.1 µM	0.01 to 0.1 µM	< 5 µM	CCn1c(-c2cccnc2[C@H](C)OC)c2c3cc(ccc31)-c1cc(O)cc(c1)C[C@H](NC(=O)[C@H](C(C)C)N(C)C(=O)[C@@H]1CCN(C(=O)OC)[C@@H]1c1ccccc1)C(=O)N1CCC[C@H](N1)C(=O)OCC(C)(C)C2 [Compound A501]		0.01 to 0.1 µM				0.1 to 1 µM	
		< 5 µM	CCn1c(-c2cccnc2[C@H](C)OC)c2c3cc(ccc31)-c1csc(n1)C[C@H](NC(=O)[C@H](C(C)C)N(C)C(=O)N1CC[C@@H]1CN(C)C)C(=O)N1CCC[C@H](N1)C(=O)OCC(C)(C)C2 [Compound A502]						0.1 to 1 µM	IC50 (NCI-H358 (K-Ras G12C)): < 0.01 µM

Further lines, the compound ahead of its results:

SMILES	IC50 (KRAS G13D; [3])	IC50 (KRAS WT; [5])	EC50 [1]	IC50 (NRAS G12C; [4])	IC50 (KRAS G12D; read-out: KRAS G12D FRET IC50)	IC50 (KRAS G12S; read-out: KRAS G12S FRET IC50)	IC50 (KRAS G13C; read-out: KRAS G13C FRET IC50)	IC50 (KRAS G12V; read-out: KRAS G12V FRET IC50)	IC50 ([2]; K-Ras G12V, 5-day treatment)	other results
CCn1c(-c2cnccc2COC)c2c3cc(ccc31)-c1cc(O)cc(c1)C[C@H](NC(=O)[C@H](C(C)C)N(C)C(=O)[C@H]1CCN(C(C)C)C1)C(=O)N1CCC[C@H](N1)C(=O)OCC(C)(C)C2 [Compound A41]	0.01 to 0.1 µM			0.1 to 1 µM						
CCn1c(-c2cccnc2COC)c2c3cc(ccc31)-c1cc(O)cc(c1)C[C@H](NC(=O)[C@H](C(C)C)N(C)C(=O)[C@H](N)CCCNC(=N)N)C(=O)N1CCC[C@H](N1)C(=O)OCC(C)(C)C2 [Compound A48]	0.1 to 1 µM									
CCn1c(-c2cccnc2[C@H](C)OC)c2c3cc(ccc31)-c1cc(O)cc(c1)C[C@H](NC(=O)[C@H](C(C)C)N(C)C(=O)[C@H]1C[C@H]1F)C(=O)N1CCC[C@H](N1)C(=O)OCC(C)(C)C2 [Compound A162]	0.01 to 0.1 µM	0.01 to 0.1 µM	< 5 µM	0.01 to 0.1 µM	0.1 to 1 µM	0.01 to 0.1 µM	0.01 to 0.1 µM			IC50 (KRAS G12C): 0.01 to 0.1 µM
CCn1c(-c2cccnc2[C@H](C)OC)c2c3cc(ccc31)-c1cc(O)cc(c1)C[C@H](NS(=O)(=O)N1CCC1)C(=O)N1CCC[C@H](N1)C(=O)OCC(C)(C)C2 [Compound A189]	> 10 µM	> 10 µM		> 10 µM	> 10 µM	> 10 µM	> 10 µM	> 10 µM	> 10 µM	
CCn1c(-c2cccnc2[C@H](C)OC)c2c3cc(ccc31)-c1cc(O)cc(c1)C[C@H](NS(=O)(=O)C1CS(=O)(=O)C1)C(=O)N1CCC[C@H](N1)C(=O)OCC(C)(C)C2 [Compound A191]	> 10 µM	> 10 µM		> 10 µM	> 10 µM	> 10 µM	> 10 µM	> 10 µM	> 10 µM	
CCn1c(-c2cccnc2[C@H](C)OC)c2c3cc(ccc31)-c1cc(O)cc(c1)C[C@H](NS(=O)(=O)c1ccc(O)cc1)C(=O)N1CCC[C@H](N1)C(=O)OCC(C)(C)C2 [Compound A195]	> 10 µM	> 10 µM		> 10 µM	> 10 µM	> 10 µM	> 10 µM	> 10 µM	> 10 µM	
CCn1c(-c2cccnc2[C@H](C)OC)c2c3cc(ccc31)-c1cc(O)cc(c1)C[C@H](NS(=O)(=O)C1CC1)C(=O)N1CCC[C@H](N1)C(=O)OCC(C)(C)C2 [Compound A196]	> 10 µM	> 10 µM		> 10 µM	> 10 µM	> 10 µM	> 10 µM	> 10 µM	> 10 µM	
CCn1c(-c2cccnc2[C@H](C)OC)c2c3cc(ccc31)-c1cc(O)cc(c1)C[C@H](NS(=O)(=O)c1cn(C)c(C)n1)C(=O)N1CCC[C@H](N1)C(=O)OCC(C)(C)C2 [Compound A197]	> 10 µM		< 5 µM		> 10 µM	> 10 µM		> 10 µM	> 10 µM	
CCn1c(-c2cccnc2[C@H](C)OC)c2c3cc(ccc31)-c1cc(O)cc(c1)C[C@H](NS(=O)(=O)c1ccc(OC)cc1OC)C(=O)N1CCC[C@H](N1)C(=O)OCC(C)(C)C2 [Compound A198]										IC50 [2]: > 10 µM; IC50 (KRAS G12D; KRAS G12D FRET IC50): > 10 µM; IC50 (KRAS G12S; KRAS G12S FRET IC50): > 10 µM; IC50 (KRAS G12V; KRAS G12V FRET IC50): > 10 µM; IC50 (KRAS G13C; KRAS G13C FRET IC50): > 10 µM; IC50 (KRAS G13D; KRAS G13D FRET data IC50): > 10 µM; IC50 (KRAS WT; KRAS WT FRET data IC50): > 10 µM; IC50 (NRAS G12C; NRAS G12C FRET data IC50): > 10 µM
CCn1c(-c2cccnc2[C@H](C)OC)c2c3cc(ccc31)-c1cc(O)cc(c1)C[C@H](NS(=O)(=O)CC1CC1)C(=O)N1CCC[C@H](N1)C(=O)OCC(C)(C)C2 [Compound A200]	> 10 µM				> 10 µM	> 10 µM		> 10 µM		IC50 [2]: 1 to 10 µM
CCn1c(-c2cccnc2[C@H](C)OC)c2c3cc(ccc31)-c1csc(n1)C[C@H](NC(=O)[C@H](C(C)C)N(C)C(=O)N1CCN3CCOC[C@H]3C1)C(=O)N1CCC[C@H](N1)C(=O)OCC(C)(C)C2 [Compound A548]									0.01 to 0.1 µM	IC50 (NCI-H358 (K-Ras G12C)): 0.1 to 1 µM
